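Cells were grown in 96-well plates and exposed to each compound for 48 hours at five concentrations; endpoints were interpolated linearly between bracketing concentrations, or set to the highest concentration if not reached. TGI is the concentration that stops growth completely.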
Assays:
Experiment in all cases: NCI tumour cell line growth inhibition, 48 h
HCT-15 colon = system: HCT-15 colon
HOP-62 NSCLC = system: HOP-62 NSCLC
CCRF-CEM leukemia = system: CCRF-CEM leukemia
DU-145 prostate = system: DU-145 prostate
MCF7 breast = system: MCF7 breast
SNB-75 CNS = system: SNB-75 CNS
RPMI-8226 leukemia = system: RPMI-8226 leukemia
PC-3 prostate = system: PC-3 prostate
EKVX NSCLC = system: EKVX NSCLC
T-47D breast = system: T-47D breast
LOX IMVI melanoma = system: LOX IMVI melanoma
NCI-H226 lung = system: NCI-H226 lung
OVCAR-4 ovarian = system: OVCAR-4 ovarian
NCI-H23 lung = system: NCI-H23 lung
MDA-N = system: MDA-N
ACHN renal = system: ACHN renal
MDA-MB-435 = system: MDA-MB-435
CAKI-1 renal = system: CAKI-1 renal
HCC-2998 colon = system: HCC-2998 colon
K-562 leukemia = system: K-562 leukemia
HT29 colon = system: HT29 colon
HS 578T breast = system: HS 578T breast
SK-MEL-5 melanoma = system: SK-MEL-5 melanoma
SK-MEL-28 melanoma = system: SK-MEL-28 melanoma
NCI/ADR-RES ovarian = system: NCI/ADR-RES ovarian
HCT-116 colon = system: HCT-116 colon
MDA-MB-231 breast = system: MDA-MB-231 breast
COLO 205 colon = system: COLO 205 colon
TK-10 renal = system: TK-10 renal
A549 NSCLC = system: A549 NSCLC
SNB-19 CNS = system: SNB-19 CNS
SK-MEL-2 melanoma = system: SK-MEL-2 melanoma
UACC-62 melanoma = system: UACC-62 melanoma
SF-268 CNS = system: SF-268 CNS
UO-31 renal = system: UO-31 renal
MOLT-4 leukemia = system: MOLT-4 leukemia
OVCAR-5 ovarian = system: OVCAR-5 ovarian
OVCAR-8 ovarian = system: OVCAR-8 ovarian
786-0 renal = system: 786-0 renal
UACC-257 melanoma = system: UACC-257 melanoma
OVCAR-3 ovarian = system: OVCAR-3 ovarian
BT-549 breast = system: BT-549 breast
SN12C renal = system: SN12C renal
HOP-92 NSCLC = system: HOP-92 NSCLC
M14 melanoma = system: M14 melanoma
IGROV1 ovarian = system: IGROV1 ovarian
SK-OV-3 ovarian = system: SK-OV-3 ovarian
KM12 colon = system: KM12 colon
SR leukemia = system: SR leukemia
SF-295 CNS = system: SF-295 CNS
MALME-3M melanoma = system: MALME-3M melanoma
NCI-H460 lung = system: NCI-H460 lung
A498 renal = system: A498 renal
NCI-H522 lung = system: NCI-H522 lung
SW-620 colon = system: SW-620 colon
U251 CNS = system: U251 CNS
SF-539 CNS = system: SF-539 CNS
HL-60(TB) leukemia = system: HL-60(TB) leukemia

For `COc1ccc(-n2cnc3c(NCC(=O)O)ncnc32)cc1`, the TGI (HCT-15 colon) was greater than 100 µM, the TGI (HOP-62 NSCLC) was greater than 100 µM and the TGI (CCRF-CEM leukemia) was greater than 100 µM. It also gave a TGI (DU-145 prostate) greater than 100 µM, a TGI (MCF7 breast) greater than 100 µM and a TGI (SNB-75 CNS) greater than 100 µM. It also gave a TGI (RPMI-8226 leukemia) greater than 100 µM, a TGI (PC-3 prostate) greater than 100 µM and a TGI (EKVX NSCLC) greater than 100 µM. The TGI (T-47D breast) was greater than 100 µM, the TGI (LOX IMVI melanoma) was greater than 100 µM and the TGI (NCI-H226 lung) was greater than 100 µM. For the same compound, the TGI (OVCAR-4 ovarian) was greater than 100 µM, the TGI (NCI-H23 lung) was greater than 100 µM and the TGI (MDA-N) was greater than 100 µM. It also gave a TGI (ACHN renal) greater than 100 µM, a TGI (MDA-MB-435) greater than 100 µM and a TGI (CAKI-1 renal) greater than 100 µM. For the same compound, the TGI (HCC-2998 colon) was greater than 100 µM, the TGI (K-562 leukemia) was greater than 100 µM and the TGI (HT29 colon) was greater than 100 µM. The TGI (HS 578T breast) was greater than 100 µM, the TGI (SK-MEL-5 melanoma) was greater than 100 µM and the TGI (SK-MEL-28 melanoma) was greater than 100 µM. For the same compound, the TGI (NCI/ADR-RES ovarian) was greater than 100 µM, the TGI (HCT-116 colon) was greater than 100 µM and the TGI (MDA-MB-231 breast) was greater than 100 µM. For the same compound, the TGI (COLO 205 colon) was greater than 100 µM, the TGI (TK-10 renal) was greater than 100 µM and the TGI (A549 NSCLC) was greater than 100 µM. The TGI (SNB-19 CNS) was greater than 100 µM, the TGI (SK-MEL-2 melanoma) was greater than 100 µM and the TGI (UACC-62 melanoma) was greater than 100 µM. The TGI (SF-268 CNS) was greater than 100 µM, the TGI (UO-31 renal) was greater than 100 µM and the TGI (MOLT-4 leukemia) was greater than 100 µM. For the same compound, the TGI (OVCAR-5 ovarian) was greater than 100 µM, the TGI (OVCAR-8 ovarian) was greater than 100 µM and the TGI (786-0 renal) was greater than 100 µM. For the same compound, the TGI (UACC-257 melanoma) was greater than 100 µM, the TGI (OVCAR-3 ovarian) was greater than 100 µM and the TGI (BT-549 breast) was greater than 100 µM. It also gave a TGI (SN12C renal) greater than 100 µM, a TGI (HOP-92 NSCLC) greater than 100 µM and a TGI (M14 melanoma) greater than 100 µM. For the same compound, the TGI (IGROV1 ovarian) was greater than 100 µM, the TGI (SK-OV-3 ovarian) was greater than 100 µM and the TGI (KM12 colon) was greater than 100 µM. The TGI (SR leukemia) was greater than 100 µM, the TGI (SF-295 CNS) was greater than 100 µM and the TGI (MALME-3M melanoma) was greater than 100 µM. For the same compound, the TGI (NCI-H460 lung) was greater than 100 µM, the TGI (A498 renal) was greater than 100 µM and the TGI (NCI-H522 lung) was greater than 100 µM. For the same compound, the TGI (SW-620 colon) was greater than 100 µM and the TGI (U251 CNS) was greater than 100 µM.

With `OC(Cc1ccc2ccccc2n1)(C(F)(F)F)C(F)(F)F` the TGI (HCT-15 colon) was greater than 10 µM, the TGI (HOP-62 NSCLC) was greater than 10 µM and the TGI (CCRF-CEM leukemia) was greater than 10 µM. The TGI (SF-539 CNS) was greater than 10 µM, the TGI (DU-145 prostate) was greater than 10 µM and the TGI (MCF7 breast) was greater than 10 µM. The TGI (SNB-75 CNS) was greater than 10 µM, the TGI (RPMI-8226 leukemia) was greater than 10 µM and the TGI (PC-3 prostate) was greater than 10 µM. The TGI (EKVX NSCLC) was greater than 10 µM, the TGI (T-47D breast) was greater than 10 µM and the TGI (LOX IMVI melanoma) was greater than 10 µM. It also gave a TGI (OVCAR-4 ovarian) greater than 10 µM, a TGI (NCI-H23 lung) greater than 10 µM and a TGI (MDA-N) greater than 10 µM. It also gave a TGI (ACHN renal) greater than 10 µM, a TGI (MDA-MB-435) greater than 10 µM and a TGI (CAKI-1 renal) greater than 10 µM. It also gave a TGI (HCC-2998 colon) greater than 10 µM, a TGI (K-562 leukemia) greater than 10 µM and a TGI (HT29 colon) greater than 10 µM. The TGI (HS 578T breast) was greater than 10 µM, the TGI (SK-MEL-5 melanoma) was greater than 10 µM and the TGI (SK-MEL-28 melanoma) was greater than 10 µM. The TGI (NCI/ADR-RES ovarian) was greater than 10 µM, the TGI (HCT-116 colon) was greater than 10 µM and the TGI (MDA-MB-231 breast) was greater than 10 µM. The TGI (COLO 205 colon) was greater than 10 µM, the TGI (TK-10 renal) was greater than 10 µM and the TGI (A549 NSCLC) was greater than 10 µM. For the same compound, the TGI (SNB-19 CNS) was greater than 10 µM, the TGI (UACC-62 melanoma) was greater than 10 µM and the TGI (SF-268 CNS) was greater than 10 µM. It also gave a TGI (UO-31 renal) greater than 10 µM, a TGI (MOLT-4 leukemia) greater than 10 µM and a TGI (OVCAR-5 ovarian) greater than 10 µM. It also gave a TGI (OVCAR-8 ovarian) greater than 10 µM, a TGI (786-0 renal) greater than 10 µM and a TGI (UACC-257 melanoma) greater than 10 µM. The TGI (OVCAR-3 ovarian) was greater than 10 µM, the TGI (BT-549 breast) was greater than 10 µM and the TGI (SN12C renal) was greater than 10 µM. For the same compound, the TGI (HOP-92 NSCLC) was greater than 10 µM, the TGI (M14 melanoma) was greater than 10 µM and the TGI (IGROV1 ovarian) was greater than 10 µM. For the same compound, the TGI (SK-OV-3 ovarian) was greater than 10 µM, the TGI (KM12 colon) was greater than 10 µM and the TGI (SR leukemia) was greater than 10 µM. The TGI (SF-295 CNS) was greater than 10 µM, the TGI (MALME-3M melanoma) was greater than 10 µM and the TGI (NCI-H460 lung) was greater than 10 µM. The TGI (A498 renal) was greater than 10 µM, the TGI (NCI-H522 lung) was greater than 10 µM and the TGI (SW-620 colon) was greater than 10 µM. It also gave a TGI (U251 CNS) greater than 10 µM.

`Cc1nn(CN2CCN(C)CC2)c(=S)n1/N=C/c1ccc(-c2ccc(Cl)cc2Cl)o1` was tested, and the TGI (HCT-15 colon) was greater than 100 µM, the TGI (HOP-62 NSCLC) was greater than 100 µM and the TGI (SF-539 CNS) was greater than 100 µM. It also gave a TGI (DU-145 prostate) greater than 100 µM, a TGI (MCF7 breast) greater than 100 µM and a TGI (PC-3 prostate) greater than 100 µM. It also gave a TGI (EKVX NSCLC) of 88.8 µM, a TGI (T-47D breast) greater than 100 µM and a TGI (LOX IMVI melanoma) greater than 100 µM. It also gave a TGI (NCI-H226 lung) of 95.2 µM, a TGI (HL-60(TB) leukemia) greater than 100 µM and a TGI (OVCAR-4 ovarian) greater than 100 µM. For the same compound, the TGI (NCI-H23 lung) was greater than 100 µM, the TGI (MDA-N) was greater than 100 µM and the TGI (ACHN renal) was greater than 100 µM. It also gave a TGI (MDA-MB-435) greater than 100 µM, a TGI (HCC-2998 colon) greater than 100 µM and a TGI (K-562 leukemia) greater than 100 µM. For the same compound, the TGI (HT29 colon) was greater than 100 µM, the TGI (HS 578T breast) was greater than 100 µM and the TGI (SK-MEL-5 melanoma) was greater than 100 µM. For the same compound, the TGI (SK-MEL-28 melanoma) was greater than 100 µM, the TGI (NCI/ADR-RES ovarian) was greater than 100 µM and the TGI (HCT-116 colon) was greater than 100 µM. For the same compound, the TGI (MDA-MB-231 breast) was greater than 100 µM, the TGI (COLO 205 colon) was greater than 100 µM and the TGI (TK-10 renal) was greater than 100 µM. For the same compound, the TGI (A549 NSCLC) was greater than 100 µM, the TGI (SNB-19 CNS) was greater than 100 µM and the TGI (SK-MEL-2 melanoma) was greater than 100 µM. For the same compound, the TGI (UACC-62 melanoma) was greater than 100 µM, the TGI (SF-268 CNS) was greater than 100 µM and the TGI (UO-31 renal) was greater than 100 µM. The TGI (MOLT-4 leukemia) was 98.2 µM, the TGI (OVCAR-5 ovarian) was greater than 100 µM and the TGI (OVCAR-8 ovarian) was greater than 100 µM. The TGI (786-0 renal) was greater than 100 µM, the TGI (UACC-257 melanoma) was greater than 100 µM and the TGI (OVCAR-3 ovarian) was greater than 100 µM. The TGI (BT-549 breast) was greater than 100 µM, the TGI (SN12C renal) was greater than 100 µM and the TGI (HOP-92 NSCLC) was greater than 100 µM. It also gave a TGI (M14 melanoma) greater than 100 µM, a TGI (IGROV1 ovarian) greater than 100 µM and a TGI (SK-OV-3 ovarian) greater than 100 µM. It also gave a TGI (KM12 colon) greater than 100 µM, a TGI (SR leukemia) greater than 100 µM and a TGI (MALME-3M melanoma) greater than 100 µM. It also gave a TGI (A498 renal) of 56.8 µM, a TGI (NCI-H522 lung) greater than 100 µM and a TGI (SW-620 colon) greater than 100 µM. For the same compound, the TGI (U251 CNS) was greater than 100 µM.

Source: PubChem BioAssay (NCI)
